PMC6072853 (Frontiers in Pharmacology, 2018)

How the values were obtained:
SiHa = experiment: MTT antiproliferative assay, SiHa; type: cell-based, human; settings: Homo sapiens, 72 h, read-out: Growth inhibition (%) ± SEM
Text: (§1) Gynecological cancer cell lines, including ovarian (A2780), cervical (HeLa), and breast cancer cell lines (MCF7, T47D, MDA-MB-231, and MDA-MB-361) were purchased from the European Collection of Authenticated Cell Cultures (ECACC, Salisbury, United Kingdom). Additional cervical cell lines (SiHa and C33A) and a non-cancerous immortalized, mammary gland epithelial cell line (hTERT-HME1) were purchased from LGC Standards GmbH (Wesel, Germany). Non-cancerous fibroblast cells (MRC-5) were also obtained from the ECACC. All cells were cultured in minimal essential medium supplemented with 10% fetal bovine serum, 1% non-essential amino acids, and 1% antibiotic-antimycotic mixture, in humidified air containing 5% CO2 at 37°C. Immortalized hTERT-HME1 cells were maintained in serum-free mammary epithelial cell growth medium (MEGM) supplemented with insulin, human epidermal growth factor (hEGF), hydrocortisone, bovine pituitary extract, and an antibiotic-antimycotic mixture. All the medium and supplements were purchased from Lonza Group Ltd. (Basel, Switzerland).
(§2) The antiproliferative properties of the compounds were assessed by an MTT assay ([Mosmann, 1983]). Cells were seeded onto 96-well microplates at a density of 10,000 cells/well (MDA-MB-361 and C33A) or 5,000 cells/well (all other cell lines). After an overnight incubation, fresh medium containing the test compounds (at a concentration of 10 or 30 μM) was added. After incubation for 72 h at 37°C in humidified air, [3-(4,5-dimethylthiazol-2-yl)-2,5-diphenyltetrazolium bromide] (MTT) solution (5 mg/mL) was added. Purple formazan crystals were formed by the living cells during a 4 h contact period, which were assayed by spectrophotometry after having been dissolved in 100 μL DMSO. Untreated cells served as control, and cisplatin (CIS) (Ebewe Pharma GmbH, Unterach, Austria) was used as a reference compound. […] Two independent measurements were performed with five parallel wells. To present preliminary data concerning tumor selectivity of the potent compounds, the procedure was repeated on MRC-5 fibroblast and hTERT-HME1 immortalized mammary gland epithelial cells under the same experimental conditions.

MCF-7 = experiment: MTT antiproliferative assay, MCF-7; type: cell-based, human; settings: Homo sapiens, MCF7, 72 h, read-out: Growth inhibition (%) ± SEM; for inhibition at 10 µM: MCF-7, 10 μM; for inhibition at 30 µM: MCF-7, 30 μM
Text: as §1, §2

MDA-MB-361 = experiment: MTT antiproliferative assay, MDA-MB-361; type: cell-based, human; settings: Homo sapiens, 72 h, read-out: Growth inhibition (%) ± SEM; for inhibition at 10 µM: MDA-MB-361, 10 μM; for inhibition at 30 µM: MDA-MB-361, 30 μM
Text: as §1, §2

T47D = experiment: MTT antiproliferative assay, T47D; type: cell-based, human; settings: Homo sapiens, 72 h, read-out: Growth inhibition (%) ± SEM
Text: as §1, §2

caspase-3 = experiment: Caspase-3 activity colorimetric assay; type: cell-based, human; settings: HeLa
Method: In order to detect, whether the test compounds induce programmed cell death, the activity of caspase-3 was determined by a colorimetric assay. To elucidate the exact pathway of apoptosis, activities of caspase-8 and caspase-9 were additionally determined by colorimetric kits. In all cases approximately 12 million cells were treated with appropriate concentrations of the compounds for 24 or 72 h. After the treatment, the cells were scraped and the enzyme activities were determined by means of colorimetric assays mentioned above. All kits were purchased from Abnova Corp. (Taipei, Taiwan) and used in accordance with the instructions of the manufacturer.

tubulin = experiment: Tubulin polymerization assay (cell-free); type: biochemical; settings: cell-free system, compared to untreated control
Method: In order to determine the direct action of the test compounds on the microtubular system, an in vitro tubulin polymerization assay was performed using a commercially available kit (Cytoskeleton Inc., Denver, CO, United States) in accordance with the provider’s instructions. The assay reactions were performed on a pre-warmed (37°C), UV-transparent 96-well microplate. Ten microliters of the test solutions were placed on the wells supplemented with 2 mM MgCl2, 0.5 mM ethylene glycol tetraacetic acid (EGTA), 1 mM guanosine triphosphate (GTP) and 10.2% glycerol. Ten microliters of general tubulin buffer was used as untreated control, and paclitaxel (PAC) served as the reference compound. The polymerization reaction was initiated by adding 100 μL of 3.0 mg/mL tubulin in 80 mM PIPES, pH 6.9, to each sample. Absorbance of the samples was measured per minute, at 340 nm, using a 60-min kinetic measurement protocol. Each sample was prepared in two parallels. To characterize the process, polymerization curves were fitted to the measured data. The highest difference between the absorbances measured at two consecutive time points was regarded as Vmax (Δabsorbance/min) for the tested compound. A clinically applied reference agent, PAC was used at a relatively high concentration (10 μM) as recommended by the manufacturer. […]. […]

SMILES | inhibition at 10 µM (SiHa) | inhibition at 30 µM (SiHa) | inhibition at 10 µM (MCF-7) | inhibition at 30 µM (MCF-7) | inhibition at 10 µM (MDA-MB-361) | inhibition at 30 µM (MDA-MB-361) | inhibition at 10 µM (T47D) | inhibition at 30 µM (T47D) | caspase-3 activity (caspase-3; 24 h, 5.0 μM) | effect on tubulin polymerization (tubulin) | caspase-3 activity (caspase-3; 72 h)
C[C@]12CC[C@H]3[C@@H](CCC4=CC(=O)CC[C@@H]43)[C@@H]1CC[C@H]2Cl [Compound 3] | < 20% | 26 ± 2.3% | < 20% | 36.9 ± 2% | < 20% | 21.8 ± 2.5% | < 20% | < 20% | enhanced caspase-3 activity | significant acceleration of tubulin polymerization | 
C[C@]12CC[C@H]3[C@@H](CCC4=CC(=O)CC[C@@H]43)[C@@H]1CC[C@@H]2O [Compound 1, 19-nortestosterone, reference compound] | < 20% | 20.7 ± 2.6% | < 20% | < 20% | < 20% | < 20% | < 20% | < 20% |  | significant acceleration of tubulin polymerization | increased significantly
